# Assays:
# [1] = Dynamic viscosity of alginate solution after treatment (alginate depolymerisation), Brookfield cone/plate viscometer
# Description: The bottle was placed in a warm water bath (50° C.) for 60 minutes before being removed and cooled in an ice bath. Finally, the dynamic viscosity was determined using a Brookfield viscosity meter as outlined below. Note 1: A 2 mM solution of [[…])2 (see description of stock 12 above) was mixed with equivalent volume of the 2 mM ascorbic acid stock solution (stock solution 7). Upon contact with the ascorbic acid, the catalyst turned from orange/red to red/purple. Note 2: 0.5 mL of both Me3-TACN ligand (stock solution 10) and MnSO4·H2O (stock solution 8) were mixed, stirred and used as a source of catalyst to be placed in the alginate solution. The dynamic viscosity of the samples was measured using a Brookfield HBDV-II cone/plate viscosity meter equipped with a spindle CPE-40. The viscometer was linked to a water bath to maintain the temperature at 25° C. The apparatus was controlled via computer (external mode) using the Rheocalc software. Initially, the viscometer was zeroed without spindle. Then, the spindle CPE-40 was installed and the gap between the bottom of the cone and the top of the cup was set according to the recommendations given by Brookfield. 0.5 mL of the treated alginate solution was placed in the cup of the viscometer using a disposable plastic syringe before the apparatus was closed and the test program launched. […] Results.
# [2] = as above; remark: listed apart in the source
compound,measurement,setting,value
"CC(=O)[O-].CC(=O)[O-].CN1CCN(C)CCN(C)CC1.CN1CCN(C)CCN(C)CC1.[Mn+4].[Mn+4].[O-2].[O-2].[O-2] [[Mn2(μ-O)3(Me3-TACN)2]^2+, [Mn^IVMn^IV(μ-O)3(1,4,7-trimethyl-1,4,7-triazacyclononane)2][CH3COO]2]",Dynamic Viscosity,"[1]; 2.5 μM, pH 8.0, 20 mM H2O2, 4.7 mM NaHCO3, 1 h at 50° C.",85.0 mPa.s
same,Dynamic Viscosity,"[1]; 2.5 μM, pH 8.5, 20 mM H2O2, 4.7 mM NaHCO3, 1 h at 50° C.",72.2 mPa.s
same,Dynamic Viscosity,"[1]; 2.5 μM, pH 9.0, 20 mM H2O2, 4.7 mM NaHCO3, 1 h at 50° C.",55.7 mPa.s
same,Dynamic Viscosity,"[1]; 2.5 μM, pH 9.0, 20 mM H2O2, 1 h at 50° C.",99.7 mPa · s
same,Dynamic Viscosity,"[1]; 2.5 μM, pH 9.5, 20 mM H2O2, 4.7 mM NaHCO3, 1 h at 50° C.",59.5 mPa.s
same,Dynamic Viscosity,"[1]; 2.5 μM, pH 9.5, 20 mM H2O2, 1 h at 50° C.",76.8 mPa · s
same,Dynamic Viscosity,"[1]; 2.5 μM, pH 10.0, 20 mM H2O2, 4.7 mM NaHCO3, 1 h at 50° C.",81.2 mPa.s
same,Dynamic Viscosity,"[1]; 2.5 μM, pH 10.0, 20 mM H2O2, 1 h at 50° C.",60.6 mPa · s
same,Dynamic Viscosity,"[1]; 2.5 μM, pH 10.5, 20 mM H2O2, 4.7 mM NaHCO3, 1 h at 50° C.",67.5 mPa.s
same,Dynamic Viscosity,"[1]; 2.5 μM, pH 10.5, 20 mM H2O2, 1 h at 50° C.",56.6 mPa · s
same,Dynamic Viscosity,"[1]; 2.5 μM, pH 11.0, 20 mM H2O2, 1 h at 50° C.",64.8 mPa · s
same,Dynamic Viscosity,"[1]; 5 μM, 20 mM ^tBuOOH, 0.25 g/L sodium tetraborate decahydrate pH 9, 60 min at 50° C.",52.3 mPa · s
same,Dynamic Viscosity,"[1]; 5 μM, pH 8.0, 20 mM H2O2, 4.7 mM NaHCO3, 1 h at 50° C.",50.9 mPa.s
same,Dynamic Viscosity,"[1]; 5 μM, pH 8.5, 20 mM H2O2, 4.7 mM NaHCO3, 1 h at 50° C.",38.6 mPa.s
same,Dynamic Viscosity,"[1]; 5 μM, pH 9, 10 mM H2O2, 4.7 mM NaHCO3, 60 min at 50° C.",21.6 mPa · s
same,Dynamic Viscosity,"[1]; 5 μM, pH 9.0, 20 mM H2O2, 4.7 mM NaHCO3, 1 h at 50° C.",24.1 mPa.s
same,Dynamic Viscosity,"[1]; 5 μM, pH 9.0, 20 mM H2O2, 1 h at 50° C.",78.1 mPa · s
same,Dynamic Viscosity,"[1]; 5 μM, pH 9.5, 20 mM H2O2, 4.7 mM NaHCO3, 1 h at 50° C.",28.0 mPa.s
same,Dynamic Viscosity,"[1]; 5 μM, pH 9.5, 20 mM H2O2, 1 h at 50° C.",41.3 mPa · s
same,Dynamic Viscosity,"[1]; 5 μM, pH 10, 10 mM H2O2, 4.7 mM NaHCO3, 60 min at 50° C.",40.6 mPa · s
same,Dynamic Viscosity,"[1]; 5 μM, pH 10.0, 20 mM H2O2, 4.7 mM NaHCO3, 1 h at 40° C.",54.2 mPa · s
same,Dynamic Viscosity,"[1]; 5 μM, pH 10.0, 20 mM H2O2, 4.7 mM NaHCO3, 1 h at 50° C.",61.0 mPa.s
same,Dynamic Viscosity,"[1]; 5 μM, pH 10.0, 20 mM H2O2, 1 h at 50° C.",27.2 mPa · s
same,Dynamic Viscosity,"[1]; 5 μM, pH 10.5, 20 mM H2O2, 4.7 mM NaHCO3, 1 h at 50° C.",57.0 mPa.s
same,Dynamic Viscosity,"[1]; 5 μM, pH 10.5, 20 mM H2O2, 1 h at 50° C.",25.6 mPa · s
same,Dynamic Viscosity,"[1]; 5 μM, pH 11, 10 mM H2O2, 4.7 mM NaHCO3, 60 min at 50° C.",62.1 mPa · s
same,Dynamic Viscosity,"[1]; 5 μM, pH 11.0, 20 mM H2O2, 1 h at 50° C.",40.4 mPa · s
same,Dynamic Viscosity,"[1]; 10 μM +1 molar equivalent ascorbic acid, pH 9.0, 0 mM Dequest 2047, 20 mM H2O2, 4.7 mM NaHCO3, 60 minutes at room temperature",7.9 mPa · s
same,Dynamic Viscosity,"[1]; 10 μM +1 molar equivalent ascorbic acid, pH 9.0, 20 mM H2O2, 4.7 mM NaHCO3, 60 minutes at 40° C.",7.4 mPa.s
same,Dynamic Viscosity,"[1]; 10 μM, no ascorbic acid, pH 9.5, 0 mM Dequest 2047, 20 mM H2O2, 4.7 mM NaHCO3, 60 minutes at room temperature",19.3 mPa · s
same,Dynamic Viscosity,"[1]; 10 μM, no ascorbic acid, pH 10.5, 1.0 mM Dequest 2047, 20 mM H2O2, 4.7 mM NaHCO3, 60 minutes at room temperature",42.6 mPa · s
same,Dynamic Viscosity,"[1]; 10 μM, 1.5 mM PAA + 1.5 mM H2O2, 0.185M Tris buffer, pH 8.5, 60 min at 30° C.",85.3 mPa · s
same,Dynamic Viscosity,"[1]; 10 μM, 3 mM H2O2, 0.185M Tris buffer, pH 8.5, 60 min at 30° C.",49.4 mPa · s
same,Dynamic Viscosity,"[1]; 10 μM, pH 8.0, 20 mM H2O2, 4.7 mM NaHCO3, 1 h at 40° C.",24.2 mPa · s
same,Dynamic Viscosity,"[1]; 10 μM, pH 8.0, 20 mM H2O2, 4.7 mM NaHCO3, 1 h at 50° C.",26.3 mPa.s
same,Dynamic Viscosity,"[1]; 10 μM, pH 8.5, 20 mM H2O2, 4.7 mM NaHCO3, 1 h at 50° C.",16.1 mPa.s
same,Dynamic Viscosity,"[1]; 10 μM, pH 9.0, 20 mM H2O2, 4.7 mM NaHCO3, 1 h at 40° C.",9.1 mPa · s
same,Dynamic Viscosity,"[1]; 10 μM, pH 9.0, 20 mM H2O2, 4.7 mM NaHCO3, 1 h at 50° C.",9.4 mPa.s
same,Dynamic Viscosity,"[1]; 10 μM, pH 9.0, 20 mM H2O2, 1 h at 50° C.",47.9 mPa · s
same,Dynamic Viscosity,"[1]; 10 μM, pH 9.5, 20 mM H2O2, 4.7 mM NaHCO3, 1 h at 40° C.",10.5 mPa · s
same,Dynamic Viscosity,"[1]; 10 μM, pH 9.5, 20 mM H2O2, 4.7 mM NaHCO3, 1 h at 50° C.",12.8 mPa.s
same,Dynamic Viscosity,"[1]; 10 μM, pH 9.5, 20 mM H2O2, 1 h at 50° C.",16.2 mPa · s
same,Dynamic Viscosity,"[1]; 10 μM, pH 10.0, 20 mM H2O2, 4.7 mM NaHCO3, 1 h at 50° C.",38.1 mPa.s
same,Dynamic Viscosity,"[1]; 10 μM, pH 10.0, 20 mM H2O2, 1 h at 50° C.",11.9 mPa · s
same,Dynamic Viscosity,"[1]; 10 μM, pH 10.5, 20 mM H2O2, 4.7 mM NaHCO3, 1 h at 50° C.",49.4 mPa.s
same,Dynamic Viscosity,"[1]; 10 μM, pH 10.5, 20 mM H2O2, 1 h at 50° C.",11.1 mPa · s
same,Dynamic Viscosity,"[1]; 10 μM, pH 11.0, 20 mM H2O2, 1 h at 50° C.",37.4 mPa · s
same,Dynamic Viscosity,"[1]; Entry 4: 2.5 μM catalyst, 2.5 μM ascorbic acid, 2.5 μM Me3TACN ligand, 20 mM H2O2, 4.7 mM NaHCO3, pH 10, 60 min at 50° C.",72.5 mPa · s
same,Dynamic Viscosity,"[1]; Entry 5: 2.5 μM catalyst, 2.5 μM ascorbic acid, 5 μM Me3TACN ligand, 20 mM H2O2, 4.7 mM NaHCO3, pH 10, 60 min at 50° C.",69.3 mPa · s
same,Dynamic Viscosity,"[1]; Entry 6: 2.5 μM catalyst, 2.5 μM ascorbic acid, 10 μM Me3TACN ligand, 20 mM H2O2, 4.7 mM NaHCO3, pH 10, 60 min at 50° C.",61.7 mPa · s
same,Dynamic Viscosity,"[1]; Entry 7: 2.5 μM catalyst, no ascorbic acid, no added ligand, 20 mM H2O2, 4.7 mM NaHCO3, pH 10, 60 min at 50° C.",78.1 mPa · s
same,Dynamic Viscosity,"[1]; Entry 8: 2.5 μM catalyst, 2.5 μM Me3TACN ligand, 20 mM H2O2, 4.7 mM NaHCO3, pH 10, 60 min at 50° C.",73.3 mPa · s
same,Dynamic Viscosity,"[1]; Entry 9: 2.5 μM catalyst, 5 μM Me3TACN ligand, 20 mM H2O2, 4.7 mM NaHCO3, pH 10, 60 min at 50° C.",66.6 mPa · s
same,Dynamic Viscosity,"[1]; Entry 10: 2.5 μM catalyst, 10 μM Me3TACN ligand, 20 mM H2O2, 4.7 mM NaHCO3, pH 10, 60 min at 50° C.",56.8 mPa · s
same,Dynamic Viscosity,"[1]; Entry 11: 5 μM catalyst, no added ligand, 20 mM H2O2, 4.7 mM NaHCO3, pH 10, 60 min at 50° C.",61.0 mPa · s
same,Dynamic Viscosity,"[1]; Entry 12: 5 μM catalyst, 5 μM Me3TACN ligand, 20 mM H2O2, 4.7 mM NaHCO3, pH 10, 60 min at 50° C.",54.0 mPa · s
same,Dynamic Viscosity,"[1]; Entry 13: 5 μM catalyst, 10 μM Me3TACN ligand, 20 mM H2O2, 4.7 mM NaHCO3, pH 10, 60 min at 50° C.",47.7 mPa · s
same,Dynamic Viscosity,"[1]; Entry 14: 5 μM catalyst, 20 μM Me3TACN ligand, 20 mM H2O2, 4.7 mM NaHCO3, pH 10, 60 min at 50° C.",38.1 mPa · s
same,Dynamic Viscosity,"[2]; 5 μM, pH 9.0, 20 mM H2O2, 4.7 mM NaHCO3, 1 h at 40° C.",17.9 mPa · s
same,Dynamic Viscosity,"[2]; 10 μM, 3 mM PAA, 0.185M Tris buffer, pH 8.5, 60 min at 30° C.",94.8 mPa · s
same,Dynamic Viscosity,"[2]; 10 μM, pH 10.5, 20 mM H2O2, 4.7 mM NaHCO3, 1 h at 40° C.",65.5 mPa · s
